# Experimental data as given in publication PMC11642016 (International Journal of Molecular Sciences, 2024).
# “And” between values parts separate entries of the source, which are not always exact repeats. Equal entries are not always repeated. Where two headings read alike, the source gives them in different places.
# Legend:
# Fadu cells = test: CellTiter-Glo luminescent cell viability assay, Fadu; details: for Fadu Cell viability (% of controll) / viability at 0.7 µM / viability at 1 µM / viability at 1.5 µM / viability at 2.3 µM / viability at 7.7 µM / viability at 17.3 µM / viability at 26 µM: dose–response, individual replicates; for viability at 0.7 µM / viability at 1 µM / viability at 1.5 µM / viability at 2.3 µM / viability at 7.7 µM / viability at 17.3 µM / viability at 26 µM / IC50: Homo sapiens, FaDu; for viability at 0.7 µM: read-out: Fadu Cell viability (% of controll), 0.7 μM; for viability at 1 µM: read-out: Fadu Cell viability (% of controll), 1 μM; for viability at 1.5 µM: read-out: Fadu Cell viability (% of controll), 1.5 μM; for viability at 2.3 µM: read-out: Fadu Cell viability (% of controll), 2.3 μM; for viability at 7.7 µM: read-out: Fadu Cell viability (% of controll), 7.7 μM; for viability at 17.3 µM: read-out: Fadu Cell viability (% of controll), 17.3 μM; for viability at 26 µM: read-out: Fadu Cell viability (% of controll), 26 μM; for Selectivity Index (SI) Fibroblast/Fadu: ratio of mean best-fit IC50 for primary fibroblasts and best-fit IC50 for Fadu
# PANC-1 cells = test: CellTiter-Glo luminescent cell viability assay, PANC-1; details: for viability at 0.7 µM: read-out: PANC-1 Cell viability (% of controll), 0.7 μM; for viability at 1 µM: read-out: PANC-1 Cell viability (% of controll), 1 μM; for viability at 1.5 µM: read-out: PANC-1 Cell viability (% of controll), 1.5 μM; for viability at 3.4 µM: read-out: PANC-1 Cell viability (% of controll), 3.4 μM; for viability at 5.1 µM: read-out: PANC-1 Cell viability (% of controll), 5.1 μM; for viability at 7.7 µM: read-out: PANC-1 Cell viability (% of controll), 7.7 μM; for viability at 17.3 µM: read-out: PANC-1 Cell viability (% of controll), 17.3 μM; for viability at 26 µM: read-out: PANC-1 Cell viability (% of controll), 26 μM; for Selectivity Index (SI) Fibroblast/PANC-1: ratio of mean best-fit IC50 for primary fibroblasts and best-fit IC50 for PANC-1
# [1] = CellTiter-Glo luminescent cell viability assay, primary fibroblasts; details: human, primary skin fibroblasts (non-tumorous), Primer fibroblast Cell viability (% of controll), 72 h, dose–response, individual replicates
# Protocol: (§1) Primary fibroblast cultures were prepared from human skin biopsies and maintained in DMEM supplemented with 10% FBS, 1% penicillin-streptomycin, and 1% MEM Non-Essential Amino Acids Solution (Thermo Fisher Scientific). […] All cell lines were cultured in a humidified atmosphere at 37 °C and 5% CO2, passaged twice a week, and the experiments were performed on cells between passage 5 and 15. The cell lines were routinely screened for the absence of mycoplasma infection (DAPI staining).
# (§2) The effects of the synthesized compounds on cell viability were measured using the CellTiter-Glo® luminescent cell viability assay (Promega, Madison, WI, USA), according to the manufacturer’s instructions. Briefly, cells were seeded onto a flat-bottomed, white 96-well plate (BRANDplates, cat. no.: 781965)), with the following densities: PANC-1: 750 cells/well, Fadu: 2000 cells/well, primary fibroblasts: 2000 cells/well, HEK293T WT: 1000 cells/well, HEK293T CLPP^−/−: 2500 cells/well. After seeding, cells were incubated for a further 48 h before treatment. Cells were treated with the compounds for 72 h. Three concentrations (25.0 µM; 8.3 µM; 2.8 µM) were applied during the initial cell viability screening, while for the determination of dose–response curves, 1.5-fold serially diluted compound concentrations were applied (range: 26 µM–0.7 µM). After treatment, the luminescence signal was recorded using a microplate reader (BioTek Synergy 2 Multi-Mode Reader, BioTek, Winooski, VT, USA).
# (§3) Data analysis was performed using GraphPad Prism 9.5.0 software (GraphPad Software, San Diego, CA, USA). […] The dose–response curves were generated by four-parameter nonlinear regression, and the IC50 values were determined as the means ± SEM of the best-fit values of 3 independent measurements. The R^2 values were consistently above 0.93, indicating a strong fit of the model to the experimental data (Supplementary S.89). […] Dunnett’s post hoc test was applied to adjust for multiple comparisons, minimizing the likelihood of false positive results. Assumptions for ANOVA, including normality (assessed via QQ plots) and homogeneity of variance (tested using the Brown–Forsythe test), were verified. The following significance levels were applied: * p < 0.05, ** p < 0.01, *** p < 0.001, **** p < 0.0001. […] The tumor selectivity of the compounds was quantitatively characterized by the selectivity index (SI). This parameter was calculated as the ratio of the average best-fit IC50 value for primary fibroblasts and the best-fit IC50 value for the corresponding tumor cells (PANC-1 or Fadu).
# [2] = system: non-tumorous primary fibroblast cells; test: as above; details: for Primer fibroblast Cell viability (% of controll): dose–response, individual replicates; for IC50: Homo sapiens, Fibroblast
# Protocol: as §1, §2, §3
# [3] = 72 h, read-out: IC50 Value ± SEM Fadu, 72 h treatment, best-fit values, n = 3
# [4] = read-out: Fadu IC50 values, Mean, mean of independently fitted replicate IC50 values (Supplement S.6)
# [5] = 0.7 μM, 72 h, dose–response, individual replicates
# [6] = 1 μM, 72 h, dose–response, individual replicates
# [7] = 1.5 μM, 72 h, dose–response, individual replicates
# [8] = 2.3 μM, 72 h, dose–response, individual replicates
# [9] = 3.4 μM, 72 h, dose–response, individual replicates
# [10] = 5.1 μM, 72 h, dose–response, individual replicates
# [11] = 7.7 μM, 72 h, dose–response, individual replicates
# [12] = 17.3 μM, 72 h, dose–response, individual replicates
# [13] = 26 μM, 72 h, dose–response, individual replicates
# [14] = Homo sapiens, PANC-1, 72 h, read-out: IC50 Value ± SEM PANC-1, 72 h treatment, best-fit values, n = 3
# [15] = Homo sapiens, PANC-1, 72 h, 72 h, dose–response, individual replicates
# [16] = Homo sapiens, PANC-1, read-out: PANC-1 IC50 values, Mean, mean of independently fitted replicate IC50 values (Supplement S.6)
# [17] = 72 h, read-out: IC50 Value ± SEM Primary Fibroblast, 72 h treatment, best-fit values, n = 3
# [18] = read-out: Primary fibroblast IC50 values, Mean, mean of independently fitted replicate IC50 values (Supplement S.6), ONC201 value mathematically estimated from inflection point
smiles,measurement,setting,value
CNCC#Cc1cccc(CN2C(=O)C3=C(CCN(Cc4ccc(-n5cc(-c6cccc(F)c6)nn5)cc4)C3)N3CCN=C23)c1 [43a],Fadu Cell viability (% of controll),"Fadu cells; 0.7 μM, 72 h",109 % of controll
same,Fadu Cell viability (% of controll),"Fadu cells; 1 μM, 72 h",109 % of controll
same,Fadu Cell viability (% of controll),"Fadu cells; 1.5 μM, 72 h",104 % of controll and 103 % of controll
same,Fadu Cell viability (% of controll),"Fadu cells; 2.3 μM, 72 h",80 % of controll and 88 % of controll
same,Fadu Cell viability (% of controll),"Fadu cells; 3.4 μM, 72 h",71 % of controll and 29 % of controll and 38 % of controll
same,Fadu Cell viability (% of controll),"Fadu cells; 5.1 μM, 72 h",5 % of controll and 0 % of controll
same,Fadu Cell viability (% of controll),"Fadu cells; 7.7 μM, 72 h",0 % of controll
same,Fadu Cell viability (% of controll),"Fadu cells; 17.3 μM, 72 h",0 % of controll
same,Fadu Cell viability (% of controll),"Fadu cells; 26 μM, 72 h",0 % of controll
same,viability at 0.7 µM,"Fadu cells; 72 h, 72 h",108%
same,viability at 1 µM,"Fadu cells; 72 h, 72 h",112%
same,viability at 1.5 µM,"Fadu cells; 72 h, 72 h",103%
same,viability at 2.3 µM,"Fadu cells; 72 h, 72 h",95%
same,viability at 7.7 µM,"Fadu cells; 72 h, 72 h",0%
same,viability at 17.3 µM,"Fadu cells; 72 h, 72 h",0%
same,viability at 26 µM,"Fadu cells; 72 h, 72 h",0%
same,IC50,Fadu cells; [3],3.2 ± 0.1 µM
same,IC50,Fadu cells; [4],3.18 µM
same,Selectivity Index (SI) Fibroblast/Fadu,Fadu cells,1.0
same,PANC-1 Cell viability (% of controll),PANC-1 cells; [5],108 % of controll and 111 % of controll
same,PANC-1 Cell viability (% of controll),PANC-1 cells; [6],112 % of controll and 115 % of controll
same,PANC-1 Cell viability (% of controll),PANC-1 cells; [7],102 % of controll and 112 % of controll
same,PANC-1 Cell viability (% of controll),PANC-1 cells; [8],93 % of controll and 84 % of controll and 107 % of controll
same,PANC-1 Cell viability (% of controll),PANC-1 cells; [9],0 % of controll
same,PANC-1 Cell viability (% of controll),PANC-1 cells; [10],0 % of controll
same,PANC-1 Cell viability (% of controll),PANC-1 cells; [11],0 % of controll
same,PANC-1 Cell viability (% of controll),PANC-1 cells; [12],0 % of controll
same,PANC-1 Cell viability (% of controll),PANC-1 cells; [13],0 % of controll
same,IC50,PANC-1 cells; [14],2.5 ± 0.94 µM
same,viability at 0.7 µM,PANC-1 cells; [15],114%
same,viability at 1 µM,PANC-1 cells; [15],110%
same,viability at 1.5 µM,PANC-1 cells; [15],102%
same,viability at 3.4 µM,PANC-1 cells; [15],0%
same,viability at 5.1 µM,PANC-1 cells; [15],0%
same,viability at 7.7 µM,PANC-1 cells; [15],0%
same,viability at 17.3 µM,PANC-1 cells; [15],0%
same,viability at 26 µM,PANC-1 cells; [15],0%
same,IC50,PANC-1 cells; [16],2.48 µM
same,Selectivity Index (SI) Fibroblast/PANC-1,PANC-1 cells,1.3
same,"viability at 72 h, 0.7 µM",[1],99%
same,"viability at 72 h, 1 µM",[1],109%
same,"viability at 72 h, 2.3 µM",[1],111%
same,"viability at 72 h, 3.4 µM",[1]; 3.4 μM,35%
same,"viability at 72 h, 5.1 µM",[1],0%
same,"viability at 72 h, 7.7 µM",[1],0%
same,"viability at 72 h, 17.3 µM",[1],0%
same,"viability at 72 h, 26 µM",[1],0%
same,Primer fibroblast Cell viability (% of controll),"[2]; 0.7 μM, 72 h",107 % of controll
same,Primer fibroblast Cell viability (% of controll),"[2]; 1 μM, 72 h",108 % of controll and 106 % of controll
same,Primer fibroblast Cell viability (% of controll),"[2]; 1.5 μM, 72 h",114 % of controll and 125 % of controll and 99 % of controll
same,Primer fibroblast Cell viability (% of controll),"[2]; 2.3 μM, 72 h",101 % of controll and 104 % of controll
same,Primer fibroblast Cell viability (% of controll),"[2]; 3.4 μM, 72 h",34 % of controll and 29 % of controll
same,Primer fibroblast Cell viability (% of controll),"[2]; 5.1 μM, 72 h",0 % of controll
same,Primer fibroblast Cell viability (% of controll),"[2]; 7.7 μM, 72 h",0 % of controll
same,Primer fibroblast Cell viability (% of controll),"[2]; 17.3 μM, 72 h",0 % of controll
same,Primer fibroblast Cell viability (% of controll),"[2]; 26 μM, 72 h",0 % of controll
same,IC50,[2]; [17],3.2 ± 0.07 µM
same,IC50,[2]; [18],3.23 µM
CNCC#Cc1cccc(CN2C(=O)C3=C(CCN(Cc4ccc(-n5cc(-c6ccc(F)cc6)nn5)cc4)C3)N3CCN=C23)c1 [43b],Fadu Cell viability (% of controll),"Fadu cells; 0.7 μM, 72 h",108 % of controll and 104 % of controll
same,Fadu Cell viability (% of controll),"Fadu cells; 1 μM, 72 h",106 % of controll and 101 % of controll
same,Fadu Cell viability (% of controll),"Fadu cells; 2.3 μM, 72 h",96 % of controll and 91 % of controll
same,Fadu Cell viability (% of controll),"Fadu cells; 3.4 μM, 72 h",58 % of controll and 46 % of controll and 27 % of controll
same,Fadu Cell viability (% of controll),"Fadu cells; 5.1 μM, 72 h",1 % of controll and 0 % of controll
same,Fadu Cell viability (% of controll),"Fadu cells; 7.7 μM, 72 h",0 % of controll
same,Fadu Cell viability (% of controll),"Fadu cells; 17.3 μM, 72 h",0 % of controll
same,Fadu Cell viability (% of controll),"Fadu cells; 26 μM, 72 h",0 % of controll
same,viability at 0.7 µM,"Fadu cells; 72 h, 72 h",108%
same,viability at 1 µM,"Fadu cells; 72 h, 72 h",102%
same,viability at 1.5 µM,"Fadu cells; 72 h, 72 h",105%
same,viability at 2.3 µM,"Fadu cells; 72 h, 72 h",91%
same,viability at 7.7 µM,"Fadu cells; 72 h, 72 h",0%
same,viability at 17.3 µM,"Fadu cells; 72 h, 72 h",0%
same,viability at 26 µM,"Fadu cells; 72 h, 72 h",0%
same,IC50,Fadu cells; [3],3.2 ± 0.06 µM
same,IC50,Fadu cells; [4],3.25 µM
same,Selectivity Index (SI) Fibroblast/Fadu,Fadu cells,1.1
same,PANC-1 Cell viability (% of controll),PANC-1 cells; [5],103 % of controll and 101 % of controll
same,PANC-1 Cell viability (% of controll),PANC-1 cells; [6],107 % of controll
same,PANC-1 Cell viability (% of controll),PANC-1 cells; [7],99 % of controll and 110 % of controll
same,PANC-1 Cell viability (% of controll),PANC-1 cells; [8],102 % of controll and 103 % of controll
same,PANC-1 Cell viability (% of controll),PANC-1 cells; [9],10 % of controll and 7 % of controll
same,PANC-1 Cell viability (% of controll),PANC-1 cells; [10],0 % of controll
same,PANC-1 Cell viability (% of controll),PANC-1 cells; [11],0 % of controll
same,PANC-1 Cell viability (% of controll),PANC-1 cells; [12],0 % of controll
same,PANC-1 Cell viability (% of controll),PANC-1 cells; [13],0 % of controll
same,IC50,PANC-1 cells; [14],3.1 ± 0.17 µM
same,viability at 0.7 µM,PANC-1 cells; [15],104%
same,viability at 1 µM,PANC-1 cells; [15],104%
same,viability at 1.5 µM,PANC-1 cells; [15],104%
same,viability at 2.3 µM,"PANC-1 cells; Homo sapiens, PANC-1, 72 h, read-out: PANC-1 Cell viability (% of controll), 2.3 μM, 72 h, dose–response, individual replicates",106%
same,viability at 3.4 µM,PANC-1 cells; [15],13%
same,viability at 5.1 µM,PANC-1 cells; [15],0%
same,viability at 7.7 µM,PANC-1 cells; [15],0%
same,viability at 17.3 µM,PANC-1 cells; [15],0%
same,viability at 26 µM,PANC-1 cells; [15],0%
same,IC50,PANC-1 cells; [16],3.06 µM
same,Selectivity Index (SI) Fibroblast/PANC-1,PANC-1 cells,1.1
same,"viability at 72 h, 0.7 µM",[1],96%
same,"viability at 72 h, 1 µM",[1],102%
same,"viability at 72 h, 1.5 µM",[1]; 1.5 μM,107%
same,"viability at 72 h, 2.3 µM",[1],105%
same,"viability at 72 h, 5.1 µM",[1],0%
same,"viability at 72 h, 7.7 µM",[1],0%
same,"viability at 72 h, 17.3 µM",[1],0%
same,"viability at 72 h, 26 µM",[1],0%
same,Primer fibroblast Cell viability (% of controll),"[2]; 0.7 μM, 72 h",105 % of controll and 104 % of controll
same,Primer fibroblast Cell viability (% of controll),"[2]; 1 μM, 72 h",113 % of controll and 103 % of controll
same,Primer fibroblast Cell viability (% of controll),"[2]; 1.5 μM, 72 h",105 % of controll and 97 % of controll
same,Primer fibroblast Cell viability (% of controll),"[2]; 2.3 μM, 72 h",99 % of controll
same,Primer fibroblast Cell viability (% of controll),"[2]; 3.4 μM, 72 h",89 % of controll and 54 % of controll and 50 % of controll
same,Primer fibroblast Cell viability (% of controll),"[2]; 5.1 μM, 72 h",0 % of controll
same,Primer fibroblast Cell viability (% of controll),"[2]; 7.7 μM, 72 h",0 % of controll
same,Primer fibroblast Cell viability (% of controll),"[2]; 17.3 μM, 72 h",0 % of controll
same,Primer fibroblast Cell viability (% of controll),"[2]; 26 μM, 72 h",0 % of controll
same,IC50,[2]; [17],3.5 ± 0.17 µM
same,IC50,[2]; [18],3.46 µM
